Measured values taken from patent publication US20230263826A1, “Compositions and Methods for Treatment and Prevention of Type 1 Diabetes” (The UAB Research Foundation, priority 2021, published 2023).

How the values were obtained:
Format in all cases: in vivo, mouse
female NOD mice [1] = test: T1D incidence in female NOD mice administered FKGK18 (weekly blood glucose monitoring)
Experimental: FIGS. 1A-1M show the effects of temporal FKGK18 regimen on T1D incidence and islet phenotype, wherein female NOD mice were administered FKGK18 (20 mg/kg, 3 × weekly) or vehicle (PBS-T) starting at 4 or 8 weeks of age. FIGS. 1A and 1B show diabetes incidence; blood glucose was monitored weekly in the 4-week (FIG. 1A; n = 17 and 15 for PBS-T and FKGK18 groups, respectively) and 8-week (FIG. 1B; n = 15 each in the PBS-T and FKGK18 groups) regimen groups for up to 30 weeks. Two consecutive readings of ≥ 275 mg/dL were recorded as onset of T1D (^†P < 0.05). FIGS. 1C-1F show glucose tolerance test (GTT) results, wherein overnight fasted mice were administered glucose (2 g/kg, i.p.), glucose levels in blood from tail vein were monitored over a 2-hour period, and AUC were generated. FIGS. 1C and 1D show four-week group at 14 weeks of age; n = 5 each in the PBS-T and FKGK18 groups. FIGS. 1E and 1F show eight-week group at 25 weeks of age; n = 7 and 5 for PBS-T and FKGK18 groups, respectively. FIGS. 1G-1I show phenotype parameters in the 8-week regimen group. […] FIGS. 1H and 1I show β Cell mass (PBS-T, n = 15; FKGK18, n = 14) (FIG. 1H) and circulating insulin (n = 15 in each group) (FIG. 1I) were determined at sacrifice (PBS-T, 14-30 weeks of age; FKGK18, 16-36 weeks of age). FIGS. 1J and 1K show islet infiltration; paraffin sections (10 µm) of pancreas were prepared and stained with H&E. Percent infiltration for each islet was calculated as the value of noninfiltrated area subtracted from total islet area (% infiltrate = 100 × [(total area - noninfiltrated area)/(total area)]) using ImageJ software. (PBS-T, n = 14 and 166 islets; FKGK18, n = 15 and 260 islets). […] FIGS. 1L and 1M show islet immune cell phenotype; paraffin sections (10 µm) of pancreas were prepared and stained for CD4+-T cells or B (B220) cells. Data presented are mean ± SEM of CD4+ T cells or B cells per islet. […] Statistical analyses: (FIGS. 1A and 1B) Mantel-Cox test; (FIGS. 1D-1M) Student’s t test.
FIGS. 2A-2E show the effects of FKGK18-withdrawal regimen on T1D incidence and glucose tolerance, wherein female NOD mice were administered FKGK18 (20 mg/kg, 3 × weekly, n = 18) or vehicle (PBS-T, n = 17) starting at 10 days of age and until 14 weeks of age. […] FIGS. 2B and 2D show glucose tolerance test (GTT) results, assessed at 14 (FIG. 2B) and 25 (FIG. 2D) weeks of age (data are presented as mean ± SEM), as described in FIG. 1. FIGS. 2C and 2E show corresponding AUC. […]
Blood glucose levels were measured weekly via tail vein blood draw (2 µL) with Breeze 2 Blood Glucose Monitoring System (Bayer HealthCare). Diabetes incidence was based on 2 consecutive blood glucose readings ≥ 275 mg/dL, at which time the mouse was euthanized. […]

female NOD mice [2] = test: β cell mass and circulating insulin at sacrifice in FKGK18-treated NOD mice; conditions: 8-week regimen group
Experimental: (§1) FIGS. 1A-1M show the effects of temporal FKGK18 regimen on T1D incidence and islet phenotype, wherein female NOD mice were administered FKGK18 (20 mg/kg, 3 × weekly) or vehicle (PBS-T) starting at 4 or 8 weeks of age. FIGS. 1A and 1B show diabetes incidence; blood glucose was monitored weekly in the 4-week (FIG. 1A; n = 17 and 15 for PBS-T and FKGK18 groups, respectively) and 8-week (FIG. 1B; n = 15 each in the PBS-T and FKGK18 groups) regimen groups for up to 30 weeks. Two consecutive readings of ≥ 275 mg/dL were recorded as onset of T1D (^†P < 0.05). FIGS. 1C-1F show glucose tolerance test (GTT) results, wherein overnight fasted mice were administered glucose (2 g/kg, i.p.), glucose levels in blood from tail vein were monitored over a 2-hour period, and AUC were generated. […] FIGS. 1H and 1I show β Cell mass (PBS-T, n = 15; FKGK18, n = 14) (FIG. 1H) and circulating insulin (n = 15 in each group) (FIG. 1I) were determined at sacrifice (PBS-T, 14-30 weeks of age; FKGK18, 16-36 weeks of age). FIGS. 1J and 1K show islet infiltration; paraffin sections (10 µm) of pancreas were prepared and stained with H&E. Percent infiltration for each islet was calculated as the value of noninfiltrated area subtracted from total islet area (% infiltrate = 100 × [(total area - noninfiltrated area)/(total area)]) using ImageJ software. […]

female NOD mice [3] = test: Islet infiltration and islet immune cell phenotype (H&E, CD4+ T cell and B220 staining of pancreas sections); conditions: 8-week regimen group
Experimental: as §1, with “generated. FIGS. 1C and 1D show four-week group at 14 weeks of age; n = 5 each in the PBS-T and FKGK18 groups. FIGS. 1E and 1F show eight-week group at 25 weeks of age; n = 7 and 5 for PBS-T and FKGK18 groups, respectively. FIGS. 1G-1I show phenotype parameters in the 8-week regimen group.” for “generated.”, “software. (PBS-T, n = 14 and 166 islets; FKGK18, n = 15 and 260 islets).” for “software.”
Blood glucose levels were measured weekly via tail vein blood draw (2 µL) with Breeze 2 Blood Glucose Monitoring System (Bayer HealthCare). Diabetes incidence was based on 2 consecutive blood glucose readings ≥ 275 mg/dL, at which time the mouse was euthanized. […] Pancreas section and islet images were captured on an Olympus IX81 microscope using cellSens Dimension software and analyzed using ImageJ software (NIH).

O=C(CCCCc1ccc2ccccc2c1)C(F)(F)F [FKGK18]
mice that remained diabetes free (female NOD mice [1]; FKGK18 20 mg/kg i.p. 3 times/week starting at 4 weeks of age, monitored up to 30 weeks, PBS-T 80% T1D incidence): 40% | T1D incidence vs corresponding PBS-T group (female NOD mice [1]; FKGK18 20 mg/kg i.p. 3 times/week starting at 8 weeks of age, modest delay): not significantly different | NOD that developed T1D (female NOD mice [1]; FKGK18 20 mg/kg i.p. 3 times/week starting at 10 days of age, by 25-30 weeks of age, vehicle 80%-90% diabetic, data not shown): 10%-15% | decreased T1D incidence after FKGK18 withdrawal (female NOD mice [1]; FKGK18 from 10 days until 14 weeks of age, then withdrawn, monitored up to 30 weeks): not evident | β cell mass vs PBS-T (female NOD mice [2]): similar | circulating insulin vs PBS-T (female NOD mice [2]; nonfasting): higher | pancreatic islet abundance of B cells relative to PBS-T (female NOD mice [3]): significantly reduced | pancreatic islet abundance of CD4+ T cells relative to PBS-T (female NOD mice [3]): significantly reduced | islet infiltration vs PBS-T (female NOD mice [3]; H&E pancreas sections): reduced
